For orientation: Ki means a measure of affinity in units of concentration, obtained from inhibition or displacement. Read a low Ki as a stronger hold on the target.

The assay deals with Bifunctional purine biosynthesis protein ATIC (Homo sapiens, UniProt P31939). Description: Enzyme Activity Assays. The protocol:
Enzyme activity assays of recombinant hGAR Tfase and recombinant hAICAR Tfase were performed as previously described. Kinetics of the enzyme reactions were monitored for 2 min after reaction initiation.

Chain of Bifunctional purine biosynthesis protein ATIC (P31939 whole entry): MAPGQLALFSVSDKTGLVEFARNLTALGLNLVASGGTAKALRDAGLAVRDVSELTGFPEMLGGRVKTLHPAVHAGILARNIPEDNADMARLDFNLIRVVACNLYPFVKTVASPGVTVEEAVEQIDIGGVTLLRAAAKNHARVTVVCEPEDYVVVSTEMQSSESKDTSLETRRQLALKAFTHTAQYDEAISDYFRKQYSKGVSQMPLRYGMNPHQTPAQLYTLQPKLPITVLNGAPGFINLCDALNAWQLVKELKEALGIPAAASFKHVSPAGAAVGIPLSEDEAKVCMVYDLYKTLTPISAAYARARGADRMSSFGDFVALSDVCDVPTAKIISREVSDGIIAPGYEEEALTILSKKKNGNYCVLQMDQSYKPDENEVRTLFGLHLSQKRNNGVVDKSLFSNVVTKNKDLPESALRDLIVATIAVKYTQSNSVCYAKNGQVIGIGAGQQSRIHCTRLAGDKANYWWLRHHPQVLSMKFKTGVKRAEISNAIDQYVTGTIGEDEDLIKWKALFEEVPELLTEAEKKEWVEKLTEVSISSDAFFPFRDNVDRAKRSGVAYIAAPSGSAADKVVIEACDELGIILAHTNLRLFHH

`Nc1nc2c(c(=O)[nH]1)C[C@@H](CCc1ccc(C(=O)NC(CCC(=O)O)C(=O)O)cc1)CN2` (stereo partly specified) [Lometrexol (3)] came in with a Ki above 100 µM.
